# Data: US12453750B2, “Fixed dose combination of cannabinoids and medical mushrooms for prevention and treatment of cancer, inflammatory or immune-mediated inflammatory diseases” (priority 2019, dated 2025)
# Assays:
# [1] = system: NO secretion from RAW cells; assay: Nitric Oxide (NO) test (Griess test) on supernatants of LPS-stimulated RAW cells; type: cell-based, Murine; conditions: for concentration effective in inhibiting NO secretion without affecting cells' viability / Cannabinoid NO: RAW cells 24 h; for % inhibition of NO secretion: vs vehicle
# Experimental: • a. ⅔ of total final volume of warm water for injection (42° C.) was added to the dry mushroom powder. • b. The suspension was vortexed and centrifuged (4100 rpm, RT, 5 min). • c. The supernatant containing the water-soluble fraction was separated into a clean tube. • d. 5% of total final volume of EtOH was added to the pellet and vortexed to extract ethanol-soluble fractions. Water was added q.s. ad. final volume. • e. The suspension was vortexed and centrifuged. The resulting supernatant was combined and centrifuged again to remove debris, yielding a final concentration of 50 mg/ml. • f. The resulting solution was passed through a cell strainer (40-70 micron). • g. Two additional stocks were prepared in vehicle (5% EtOH in WFI): 10 mg/ml and 2 mg/ml. • h. All Test items/Vehicle were added to the cells at 4 μL into 96 μL medium, yielding final working concentrations of: 2 mg/ml, 0.4 mg/ml, and 0.08 (in 0.2% EtOH, 4% WFI). […] Cell Medium Formulations:
# (§1) • a. Cells were harvested at 80% confluence, counted and re-suspend to final concentration of 1×10^6/ml in growth medium. • b. […] Cells were incubated (37±10 C, 5% CO2) for 18-24 hrs. • d. Growth medium was removed; […] medium and 4 μL Vehicle, Test Item, and Controls were added. • e. The content of all wells was mixed by pipetting up and down three times. • f. Plates were incubated for 2 h (37±1° C., 5% CO2). • g. LPS (10 μl, final concentration of 100 ng/ml LPS) was added to all wells. • h. The content of all wells was mixed by pipetting up and down three times. • i. Plates were incubated for 24±2 h (37±1° C., 5% CO2). • j. Medium was collected from the 96-microtiter plate: 50 μl for NO secretion assay and the rest was stored in −20° C. for cytokine secretion assay.
# Cell Proliferation and Viability (XTT Assay) • a. XTT reaction solution was prepared. • b. 50 μl of the XTT reaction solution was added into each well. • c. Plates were incubated in a humidified atmosphere (e.g. 37° C., 5% CO2). • d. The plates were shaken gently to evenly distribute the dye in the wells. • e. The absorbance of the samples was measure against a background control as a blank with a spectrophotometer (ELISA reader) at a wavelength of 450 nm. • f. In order to measure reference absorbance (to measure non-specific readings), a wavelength of 620 nm was used to subtract from the 450 nm measurement. • g. […] Nitric Oxide (NO) Test (Griess Test) • a. The Sulfanilamide Solution and NED Solution were allowed to equilibrate to room temperature (15-30 minutes). • b. 1 ml of a 100 μM nitrite solution was prepared by diluting the provided 0.1M Nitrite Standard 1:1,000 in culture medium. • c. 2 columns (16 wells) were designate in the non-binding 96-well plate for the Nitrite Standard reference curve. 50 μl of assay medium were dispensed into the wells in rows B-H (FIG. 1). • d. 100 μl of the 100 μM nitrite solution was added to the remaining 2 wells in row A. serial twofold dilutions (50 μl/well) were performed immediately in duplicate down the plate to generate the Nitrite Standard reference curve (100, 50, 25, 12.5, 6.25, 3.13 and 1.56 μM), discarding 50 μl from the 1.56 μM set of wells • e. 50 μl of the Sulfanilamide Solution were dispensed to all experimental samples and wells containing the dilution series for the Nitrite Standard reference curve. • f. The plate was incubated 5-10 minutes at room temperature, protected from light. • g. 50 μl of the NED Solution was dispensed to all wells. • h. The plate was incubated 5-10 minutes at room temperature, protected from light. • i. Absorbance was measured within 30 minutes in a plate reader with a filter between 520 nm and 550 nm. • j.
# [2] = system: TNFα secretion from RAW cells; assay: TNFα secretion, Multiplex analysis of medium of LPS-stimulated RAW cells; type: cell-based, Murine; conditions: CBD (15 μM), THC (20 μM)
# Experimental: as §1
# (§2) Cytokine Secretion • a. Reishi, Cordyceps M, Agaricus blazei, and Cordyceps Cs-4 were incubated with […] at 0.08-2 mg/ml for 24 hours. • b. Medium from cells was collected for Multiplex analysis (CCL3/MIP1α, IL-6, IL-1β, TNFα, IL-10 and IL-6) in duplicates. • c.
# (§3) Cytokine Secretion • a. CBD (15 μM) and THC (20 μM) were incubated with […]. • b. Medium from cells was collected for Multiplex analysis (CCL3/MIP1α, IL-6, IL-1β, TNFα, IL-10 and IL-6) in duplicates. • c. […] IL-6 secretion: • i. […] TNFα secretion: • i.
# (§4) Cytokine Secretion • a. […]
# [3] = system: NCl-H292 (lung cancer) cells; conditions: D9-THC at 100-300 nM; cited from earlier work
# PANC-1 cells = assay: Viability assay (XTT) of PANC-1 cells; type: cell-based, Human; conditions: 72 hours; for % viability at the potent concentrations: CBD 40-100 μM, THC 100-375 μM, no dose response
# Experimental: (§5) • a. PANC-1 cells (Human Pancreatic Cancer cells) (American Type Culture Collection, Rockville, MD, USA). • b. EGL-1 cells (Human extrahepatic cholangio carcinoma) Cell Growth:
# Growth medium for PANC-1/EGL-1 cells: Dulbecco's Modified Eagle Medium (DMEM) high glucose supplemented with 10% Fetal Bovine Serum (FBS), 2 mM L-Glutamine, and 1% Penicillin-Streptomycin solution (PS).
# Assay medium for PANC-1: Assay medium contained only 1% FBS.
# (§6) • a. Cells were harvest at 80% confluence, counted and re-suspend to final concentration of 75×10^3/ml (PANC-1) or 50×103 (EGL-1) in growth medium. • b. Panc-1 cell suspension was seeded in 96-well microtiter plate at 7500 cells/100 μl/well and EGL-1 cell suspension was seeded in 96-well microtiter plate at 5000 cells/l100p/well. • c. Cells were incubated (37±10 C, 5% CO2) for 18-24 hrs. • d. Growth medium was removed; 80 μL assay medium and 20 μL Vehicle, Test Item, and Controls were added. […] The content of all wells was mixed by pipetting up and down three times. • f. Plates were incubated for 72±2 h (37±1° C., 5% CO2). • g. The medium on all plates was replaced with 100 μl culture medium. XTT Assay • a. XTT reaction solution was prepared. • b. 50 μl of the XTT reaction solution was added into each well. • c. Plates were incubated in a humidified atmosphere (e.g. 37° C., 5% CO2). • d. The plates were shaken gently to evenly distribute the dye in the wells. • e. The absorbance of the samples was measure against a background control as a blank with a spectrophotometer (ELISA reader) at a wavelength of 450 nm. • f. In order to measure reference absorbance (to measure non-specific readings), a wavelength of 620 nm was used to subtract from the 450 nm measurement. • g. The idle absorbance of the cells was 0.5-1.5 in all wells.
# EGL-1 cells = assay: Viability assay (XTT) of EGL-1 cells; type: cell-based, Human; conditions: 72 hours; for % viability at the potent concentrations: CBD 40-100 μM, THC 100-375 μM
# Experimental: as §5
# Growth medium for EGL-1 cells: RPMI-1640 medium supplemented with 10% Fetal Bovine Serum (FBS), 2 mM L-Glutamine, and 1% Penicillin-Streptomycin solution (PS).
# Assay medium for EGL-1: Assay medium contained only 1% FBS in DMEM low glucose (1 g/L)
# as §6
# [4] = system: U373-MG (glioblastoma) cells; conditions: D9-THC at 100-300 nM; cited from earlier work
# cancer cells = conditions: D9-THC (4-10 µM); cited from earlier work
# [5] = system: IL-6 secretion from RAW cells; assay: IL-6 secretion, Multiplex analysis of medium of LPS-stimulated RAW cells; type: cell-based, Murine; conditions: CBD (15 μM)
# Experimental: as §1, §2, §3, §4
# [6] = Mus musculus, read-out: % inhibition of NO secretion
Structure (SMILES),"inhibition at 20 µM [1, 6]",concentration effective in inhibiting NO secretion without affecting cells' viability [1],NO ([1]; THC 20 μM alone),Cannabinoid NO ([1]; cannabinoid 20 μM),% inhibition of NO secretion ([1]; cannabinoid 20 μM),effect on TNFα secretion (in words) [2],increase in the proliferation rate [3],concentration at which potent (viability) (PANC-1 cells),% viability at the potent concentrations (PANC-1 cells),concentration at which potent (viability) (EGL-1 cells),% viability at the potent concentrations (EGL-1 cells),increase in the proliferation rate [4],number of apoptotic cells (cancer cells),NO ([1]; CBD 15 μM alone),"inhibition at 15 µM [1, 6]",Cannabinoid NO ([1]; cannabinoid 15 μM),% inhibition of NO secretion ([1]; cannabinoid 15 μM),effect on IL-6 secretion (in words) [5]
"CCCCCc1cc(O)c2c(c1)OC(C)(C)[C@@H]1CCC(C)=C[C@@H]21 [THC, Δ^9-tetrahydrocannabinol]",66.7%,20 µM,3.72 µM,8.77 µM,54.4%,did not affect TNFα secretion,1.2 fold,100 to 375 µM,35%,100 to 375 µM,15%,2 fold,30-80%,–,–,–,–,–
"C=C(C)[C@@H]1CCC(C)=C[C@H]1c1c(O)cc(CCCCC)cc1O [CBD, cannabidiol]",–,15 to 20 µM,–,5.07 µM,73.6%,did not affect TNFα secretion,–,40 to 100 µM,35%,40 to 100 µM,15-30%,–,–,6.67 µM,40.2%,11.8 µM,38.6%,did not affect IL-6 secretion
